How the values were obtained:
[1] = system: SAOS-2 (human osteosarcoma cells); assay: MTT cell viability assay, SAOS-2; assay type: cell-based; settings: 72 h, read-out: cell viability (normalized to control)
Method: (§1) The present study was performed on two human cancer cell lines—SAOS-2 (osteosarcoma cells) and Detroit-562 (oropharynx squamous carcinoma cells), respectively, which were received from ATCC in the form of frozen vials. SAOS-2 cells were cultured in DMEM, while Detroit-562 cells were cultured using EMEM. Both media contained 10% FCS and 1% penicillin (100 U/mL)–streptomycin (100 μg/mL) mixture. Over the course of the experiments, the cells were incubated at 37 °C and 5% CO2.
(§2) A colorimetric approach—the MTT [[…])-2,5-diphenyltetrazolium bromide] assay, was used to determine cell viability. This was accomplished by cultivating the cells in 96-well plates at a density of 1x10^4 cells per well. Upon achieving a confluence of approximately 90%, the cells were stimulated for 72 h with five concentrations of Eug (0.1; 0.25; 0.5; 0.75 and 1 mM). The Eug solutions were prepared by diluting stock solution in culture medium. After this time interval, 10 μL of MTT reagent was added to each well, and the cells were incubated for three hours at 37 °C. To solubilize the MTT formazan crystals, 100 μL of solubilizer were added to each well, and after 30 min, the absorbance was measured at 570 nm using Cytation 5 (BioTek Instruments Inc., Winooski, VT, USA).

[2] = system: Detroit-562 (oropharynx squamous carcinoma cells); assay: MTT cell viability assay, Detroit-562; assay type: cell-based; settings: Homo sapiens, 72 h, read-out: cell viability (normalized to control)
Method: as §1, §2

SAOS-2 cells [3] = assay: Cellular morphology evaluation (bright field), SAOS-2; assay type: cell-based, human; settings: SAOS-2, concentrations higher than 0.1 mM, 72 h
Method: (§3) As a means of determining the impact of Eug on the morphology of cells, the microscopic evaluation of SAOS-2 and Detroit-562 cells was carried out after exposure for 72 h. The changes were observed under bright field illumination with the help of the Olympus IX73 inverted microscope (Olympus, Tokyo, Japan), and the processing of the images for the purpose of analysis was carried out by means of CellSens Dimensions v.17 Software (Olympus, Tokyo, Japan).

Detroit-562 cells [4] = assay: Cellular morphology evaluation (bright field), Detroit-562; assay type: cell-based, human; settings: Detroit-562, Eug 0.1 mM, 72 h, vs control
Method: as §3

SAOS-2 cells [5] = assay: DAPI nuclear morphology / apoptotic index, SAOS-2; assay type: cell-based, human; settings: 72 h
Method: (§4) Using immunofluorescence, it was possible to provide further details regarding Eug’s effects on osteosarcoma and oropharynx squamous carcinoma nuclei. The technique was performed for cells stimulated with Eug 0.5 and 1 mM for 72 h. The applied protocol assumed the following stages: (i) culturing the cells in 12-well plates and stimulating them after reaching the desired confluence with Eug 0.5 and 1 mM for 72 h; (ii) washing with PBS and fixing the cells with 4% paraformaldehyde; (iii) permeabilization with Triton X 0.2%; (iv) blocking the permeabilization with a FCS solution in Triton X 0.01%; and (v) adding DAPI for 15 min. The pictures were then taken with Cytation 1 and processed using Gen5™ Micro-plate Data Collection and Analysis Software v. 3.12 (BioTek® Instruments Inc., Winooski, VT, USA). For a quantitative analysis of the Eug impact at the cellular level, the cell apoptosis index (AI) was calculated using the previously described formula [76]: AI=Number of apoptotic cells/Total number of cells×100
(§5) In accordance with the published protocols, the nuclear morphology was evaluated using ImageJ software v.6 [77].

Detroit-562 cells [6] = assay: DAPI nuclear morphology / apoptotic index, Detroit-562; assay type: cell-based, human; settings: 72 h
Method: as §4, §5

[7] = system: Bax, Bad, Bcl-2 mRNA in SAOS-2 cells; assay: RT-PCR expression of apoptosis-related genes, SAOS-2; assay type: cell-based, human; settings: SAOS-2, Eug 0.5 mM, 72 h, normalized to 18S
Method: (§6) To investigate the potential cell-death mechanism induced by Eug 0.5 mM in SAOS-2 and Detroit-562 cells, the expression of pro-apoptotic (Bax, Bad) and anti-apoptotic (Bcl-2) markers was evaluated using the real-time reverse transcription–polymerase chain reaction (RT-PCR) technique after 72 h of treatment. RNA extraction was performed using the Quick-RNA Miniprep Kit (Zymo Research, Irvine, CA, USA), and the amount of extracted RNA was measured with the DS-11 spectrophotometer (DeNovix, Wilmington, DE, USA). The cDNA was produced using the Maxima® First Strand cDNA Synthesis Kit, and the RT-qPCR quantification was performed using a Quant Studio 5 real-time PCR system (Thermo Fisher Scientific, Inc., Waltham, MA, USA) and Power SYBR-Green PCR Master Mix (Thermo Fisher Scientific, Inc., Waltham, MA, USA).

[8] = system: Bax, Bad, Bcl-2 mRNA in Detroit-562 cells; assay: RT-PCR expression of apoptosis-related genes, Detroit-562; assay type: cell-based, human; settings: Detroit-562, Eug 0.5 mM, 72 h, normalized to 18S
Method: as §6

[9] = system: caspases 3/7, 8, and 9 in SAOS-2 cells; assay: Caspase-Glo caspase-3/7, -8, -9 activity, SAOS-2; assay type: cell-based, human; settings: SAOS-2, Eug 0.5 mM, 72 h
Method: (§7) The activity of caspases 3/7, 8, and 9 was determined after the SAOS-2 and Detroit-562 cells’ 72 h treatment with Eug 0.5 mM, using the Caspase-Glo Kit provided by Promega, Madison, WI, USA. The plates were first equilibrated at room temperature for 30 min, then, the Caspase-Glo reagent (100 μL/well) was added. The plates were shaken for 30 s on a plate shaker and maintained at room temperature for another 2 h. Finally, the luminescence was measured on Cytation 5 (BioTek Instruments Inc., Winooski, VT, USA).

[10] = system: caspases 3/7, 8, and 9 in Detroit-562 cells; assay: Caspase-Glo caspase-3/7, -8, -9 activity, Detroit-562; assay type: cell-based, human; settings: Detroit-562, Eug 0.5 mM, 72 h
Method: as §7

SAOS-2 cells [11] = assay: RealTime-Glo Annexin V Apoptosis and Necrosis Assay, SAOS-2; assay type: cell-based, human; settings: SAOS-2, Eug 0.5 mM, 0-72 h
Method: (§8) To confirm the apoptotic effect of Eug 0.5 mM in Saos-2 and Detroit-562 cells, the RealTime-Glo™ Annexin V Apoptosis and Necrosis Assay was performed according to the manufacturer’s protocol. In brief, the cells were cultured in solid white bottom 96-well plates (Costar® 3917) and treated with Eug. The prepared 2X Detection Reagent that contained Annexin V NanoBiT™ Substrate, Annexin V-SmBiT, Annexin V-LgBiT, CaCl2, and Necrosis Detection Reagent was added in each well and the plates were shaken for 30 s at 500 rpm. The luminescence and fluorescence (excitation 485 ± 20 nm, and emission 525 ± 30 nm) were recorded at different time points (0, 6, 12, 24, 48, and 72 h post-treatment) using Cytation 5. Background signals (from no-cell wells) that were subtracted from the wells that contained cells.

Detroit-562 cells [12] = assay: RealTime-Glo Annexin V Apoptosis and Necrosis Assay, Detroit-562; assay type: cell-based, human; settings: Detroit-562, Eug 0.5 mM, 0-72 h
Method: as §8

[13] = system: chorioallantoic membrane of hen's eggs; assay: Hen's Egg Test - Chorioallantoic Membrane (HET-CAM); assay type: in vivo, Gallus gallus domesticus; set-up: key to IS (irritation score): IS = 5×(301−H)/300 + 7×(301−L)/300 + 9×(301−C)/300; tH, time at which hemorrhage was established / tL, time at which vascular lysis was established / tC, time at which intravascular coagulation was established: unit not given here; settings: Eug 1 mM / SDS 1%, monitored 5 min; for IS (irritation score): 600 µL on CAM
Method: The irritant and toxic potential of Eug (1 mM) at the vascular level was assessed by performing the HET-CAM assay, as previously described. In brief, several steps were followed: […] (ii) on day 4 after incubation, a perforation was made in each egg to extract 6 to 7 mL of albumen; (iii) on the next day of incubation, a window was cut in the upper part of the eggs to facilitate the visualization of the blood vessels, and was covered using adhesive tape; (iv) on day 10 of incubation, 600 µL of each sample (negative control—H2O, positive control—SDS 1%, and Eug 1 mM) were added to the chorioallantoic membrane; (v) the compounds’ ability to produce hemorrhage (H), vascular lysis (L), and coagulation was monitored for 5 min, taking photos (using the Discovery 8 Stereomicroscope from Zeiss, Göttingen, Germany and the Zeiss Axio CAM 105 color camera) prior to the addition of the samples (T0) and at the end of the 5 min period (T5); and (vi) the irritation score (IS) was finally determined for each sample, according to the following formula: IS=5×301−H/300+7×301−L/300+9×301−C/300, where IS = irritation score, H—the time at which the hemorrhage was observed, L—the time at which vascular lysis occurred and C—the time at which intravascular coagulation was established.

[14] = system: colorectal carcinoma cells (HCT-116); set-up: method as in doi:10.31925/farmacia.2023.2.8; settings: HCT-116, Eug between 0.1 and 1 mM; cited from earlier work
[15] = system: gingival fibroblasts (HGF); set-up: method as in PMID 36675971, doi:10.31925/farmacia.2023.2.8; settings: same concentration and time interval as current study; cited from earlier work
keratinocytes (HaCaT) = settings: cited from earlier work
[16] = system: tongue squamous carcinoma cells (SCC4); set-up: method as in PMID 36675971; settings: SCC4, Eug between 0.1 and 1 mM; cited from earlier work
SAOS-2 cells [17] = system: SAOS-2 cells; set-up: method as in PMID 26929741; settings: SAOS-2, 100 μM; cited from earlier work
[18] = SAOS-2, Eug 0.5 and 1 mM, vs control
[19] = Detroit-562, Eug 0.5 and 1 mM, vs control

In the case of `C=CCc1ccc(O)c(OC)c1` [Eug, 4-alil-2-metoxifenol], the viability at 100 µM ([1]; SAOS-2, Eug 0.1 mM) is reported as 92%, the viability at 1000 µM ([1]; SAOS-2, Eug 1 mM) is reported as 41% and the viability at 100 µM ([2]; Detroit-562, Eug 0.1 mM) is reported as 89%. The viability at 1000 µM ([2]; Detroit-562, Eug 1 mM) was 37%, the “impact on cellular shape and confluence” value (SAOS-2 cells [3]) was “significant impact” and the “changes in aspect or confluence of cells” value (Detroit-562 cells [4]) was “no significant changes”. For the same compound, the “apoptotic index (AI)” value (SAOS-2 cells [5]; SAOS-2, Eug 0.5 mM, DAPI) was 25%, the nucleus area (SAOS-2 cells [5]; [18]) was “decreased significantly” and the nucleus circumference (SAOS-2 cells [5]; [18]) was “decreased significantly”. For the same compound, the “apoptotic index (AI)” value (Detroit-562 cells [6]; Detroit-562, Eug 0.5 mM, DAPI) was 30%, the nucleus area (Detroit-562 cells [6]; [19]) was “decreased significantly” and the nucleus circumference (Detroit-562 cells [6]; [19]) was “decreased significantly”. The “expression of anti-apoptotic marker Bcl-2 (mRNA)” value [7] was “decreasing”, the “expression of pro-apoptotic marker Bad (mRNA)” value [7] was “significantly increasing” and the “expression of pro-apoptotic marker Bax (mRNA)” value [7] was “significantly increasing”. The “expression of anti-apoptotic marker Bcl-2 (mRNA)” value [8] was “decreasing”, the “expression of pro-apoptotic marker Bad (mRNA)” value [8] was “significantly increasing” and the “expression of pro-apoptotic marker Bax (mRNA)” value [8] was “significantly increasing”. For the same compound, the “activation of caspase 3/7” value [9] was “significant increase”, the “activation of caspase 8” value [9] was “significant increase” and the “activation of caspase 9” value [9] was “significant increase”. For the same compound, the “activation of caspase 3/7” value [10] was “significant increase”, the “activation of caspase 8” value [10] was “significant increase” and the “activation of caspase 9” value [10] was “significant increase”. The “luminescence signal (phosphatidylserine externalization), preceding the fluorescence increase” value (SAOS-2 cells [11]) was “time-dependent increase”, the “luminescence signal (phosphatidylserine externalization), preceding the fluorescence increase” value (Detroit-562 cells [12]) was “time-dependent increase” and the “IS (irritation score)” value [13] was 1.69. For the same compound, the “tC, time at which intravascular coagulation was established” value [13] was 263, the “tH, time at which hemorrhage was established” value [13] was 300 and the “tL, time at which vascular lysis was established” value [13] was 278. The “decrease in cell viability” value [14] was “up to 34%”, the “decrease in cell viability” value [15] was at most 70% and the “decrease in cell viability” value (keratinocytes (HaCaT); HaCaT, same concentration and time interval as current study) was at most 70%. For the same compound, the “cell viability (in words)” value [16] was “dose-dependent decrease”.
For `CN(Cc1cnc2nc(N)nc(N)c2n1)c1ccc(C(=O)N[C@@H](CCC(=O)O)C(=O)O)cc1` [methotrexate, reference compound], the “cell viability (in words)” value (keratinocytes (HaCaT); non-tumor cells HaCaT, methotrexate more pronounced) is given as “reduced cell viability in a dose-dependent manner” and the cell viability (SAOS-2 cells [17]) is given as “below 20%”.
For `CCCCCCCCCCCCOS(=O)(=O)[O-].[Na+]` [SDS, sodium dodecyl sulfate, reference compound], the “IS (irritation score)” value [13] was 19.87, the “tC, time at which intravascular coagulation was established” value [13] was 15 and the “tH, time at which hemorrhage was established” value [13] was 21. The “tL, time at which vascular lysis was established” value [13] was 17.

— paper PMC10610311, “Eugenol: In Vitro and In Ovo Assessment to Explore Cytotoxic Effects on Osteosarcoma and Oropharyngeal Cancer Cells” (Plants, 2023)
